The results in this text go back to US11845752B2, “Substituted imidazo[1,5-a]pyrazines for the treatment of hepatitis B” (ALIGOS THERAPEUTICS, INC., priority 2020, dated 2023).

pEC50: −log10 of the molar value. Read-outs that look alike come from different tables or passages of the source.

This assay concerns HBV. Put plainly: HBV-DNA antiviral assay using HepG2.117 cells (intracellular HBV DNA by qPCR). It is filed as cell-based, HBV genotype D. The settings on record: HBV DNA inhibition, 3 days incubation, read-out: EC50. The gist of the method:
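HepG2.117 cells (stably integrated genotype D HBV, Tet-off) seeded without doxycycline to induce pgRNA, then treated next day with 9 concentrations (4-fold dilutions, 2% DMSO) for 3 days at 37 °C. Intracellular HBV DNA quantified by qPCR against standard curve, viability by ATP content; inhibition relative to DMSO control, EC50/EC90/CC50 by non-linear regression.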
(In general: Quantitative PCR measures a nucleic acid by following its amplification.)

The mark [1] stands for this setting: Hepatitis B virus, HepG2.117, 72 h.

With `CC1Cn2c(c(C(=O)NCc3ccccc3-c3ccncn3)n(-c3ccc(-n4cccn4)cc3)c2=O)CN1C(=O)c1ccc(Br)c(Cl)c1` (single isomer, unassigned) [Compound 4a, 7-(4-bromo-3-chloro-benzoyl)-6-methyl-3-oxo-2-(4-pyrazol-1-ylphenyl)-N-[(2-pyrimidin-4-ylphenyl)methyl]-6,8-dihydro-5H-imidazo[1,5-a]pyrazine-1-carboxamide], under setting [1], the pEC50 (in general, −log10 of the EC50, conventionally taken in molar units) was 6.30 to 7.30.

As for `CC1Cn2c(c(C(=O)NCc3ccccc3-c3cc(N)cnn3)n(-c3ccc(OC4CC4)cc3)c2=O)CN1C(=O)c1ccc(Br)c(Cl)c1` (single isomer, unassigned) [Compound 42b], the pEC50 was 6.30 to 7.30.

As for `C[C@H](O)COc1ccc(-n2c(C(=O)NCc3ccccc3-c3cccnn3)c3n(c2=O)C[C@H](C)N(C(=O)c2ccc(Br)c(C(F)(F)F)c2)C3)cc1` (mixture of isomers) [Compound 57b, (6SR)-7-[4-bromo-3-(trifluoromethyl)benzoyl]-2-[4-[(2S)-2-hydroxypropoxy]phenyl]-6-methyl-3-oxo-N-[(2-pyridazin-3-ylphenyl)methyl]-6,8-dihydro-5H-imidazo[1,5-a]pyrazine-1-carboxamide], the pEC50 under setting [1] is 6.30 to 7.30.

Regarding `CC1Cn2c(c(C(=O)NCc3ccccc3-c3ccn(CC(F)(F)F)n3)n(-c3ccc(N4CC5(CN(C)C5)C4)cc3)c2=O)CN1C(=O)c1ccc(Br)c(C(F)(F)F)c1` (single isomer, unassigned) [Compound 99b], the pEC50 was 6.30 to 7.30.

Take `C[C@H](O)COc1ccc(-n2c(C(=O)NCc3ccccc3-c3ccncn3)c3n(c2=O)C[C@@H](C)N(C(=O)c2ccc(Br)c(C(F)(F)F)c2)C3)cc1` (mixture of isomers) [Compound 58a, (6RS)-7-[4-bromo-3-(trifluoromethyl)benzoyl]-2-[4-[(2S)-2-hydroxypropoxy]phenyl]-6-methyl-3-oxo-N-[(2-pyrimidin-4-ylphenyl)methyl]-6,8-dihydro-5H-imidazo[1,5-a]pyrazine-1-carboxamide]: the pEC50 under setting [1] is 6.30 to 7.30.

`Cc1nc2cc(-n3c(C(=O)NCc4ccccc4-c4ccncn4)c4n(c3=O)CC(C)N(C(=O)c3ccc(Br)c(C(F)(F)F)c3)C4)ccc2o1` (single isomer, unassigned) [Compound 48b]: the pEC50 is over 7.30.

Take `CC1Cn2c(c(C(=O)NCc3ccccc3-c3nccc(C(F)(F)F)n3)n(-c3ccc(N4CC5(CN(C)C5)C4)cc3)c2=O)CN1C(=O)c1ccc(Br)c(C(F)(F)F)c1` (single isomer, unassigned) [Compound 98a]: the pEC50 was 6.30 to 7.30.

On to `CC1Cn2c(c(C(=O)NCc3ccccc3-n3ccc(C(F)(F)F)n3)n(-c3ccc(N4CC5(CN(C)C5)C4)cc3)c2=O)CN1C(=O)c1ccc(Br)c(C(F)(F)F)c1` (single isomer, unassigned) [Compound 110a], for which, under setting [1], the pEC50 is 6.30 to 7.30.

As for `Cc1cc(C(=O)N2Cc3c(C(=O)NCc4ccccc4-c4ccncn4)n(-c4ccc(OC5CC5)cc4)c(=O)n3CC2C)ccc1Br` (single isomer, unassigned) [Compound 12b, 7-(4-bromo-3-methyl-benzoyl)-2-[4-(cyclopropoxy)phenyl]-6-methyl-3-oxo-N-[(2-pyrimidin-4-ylphenyl)methyl]-6,8-dihydro-5H-imidazo[1,5-a]pyrazine-1-carboxamide], the pEC50 is over 7.30.

As for `C[C@H](COc1ccc(-n2c(C(=O)NCc3ccccc3-c3ncccn3)c3n(c2=O)C[C@@H](C)N(C(=O)c2ccc(Br)c(C(F)(F)F)c2)C3)cc1)N(C)C` (single isomer, unassigned) [Compound 97a], under setting [1], the pEC50 is 6.30 to 7.30.

Turning to `CC1Cn2c(c(C(=O)NCc3ccccc3-c3ncccn3)n(-c3ccc(OC4CC4)cc3)c2=O)CN1C(=O)c1ccc(Br)c(C(F)(F)F)c1` (single isomer, unassigned) [Compound 59a], the pEC50 under setting [1] is over 7.30.

Regarding `C[C@H]1Cn2c(c(C(=O)NCc3ccccc3-c3ccccn3)n(-c3ccc(OC[C@@H](O)C(F)(F)F)cc3)c2=O)CN1C(=O)c1ccc(Br)c(C(F)(F)F)c1` (mixture of isomers) [Compound 68b, (6SR)-7-[4-bromo-3-(trifluoromethyl)benzoyl]-6-methyl-3-oxo-N-[[2-(2-pyridyl)phenyl]methyl]-2-[4-[(2R)-3,3,3-trifluoro-2-hydroxy-propoxy]phenyl]-6,8-dihydro-5H-imidazo[1,5-a]pyrazine-1-carboxamide], the pEC50 under setting [1] was over 7.30.

`CC1Cn2c(c(C(=O)NCc3ccccc3-c3ncccn3)n(-c3ccc4c(cnn4C4CNC4)c3)c2=O)CN1C(=O)c1ccc(Br)c(C(F)(F)F)c1` (single isomer, unassigned) [Compound 109a]: under setting [1], the pEC50 was 5.30 to 6.30.

Regarding `O=C(NCc1ccccc1)c1c2n(c(=O)n1-c1ccc(N3CCOC(F)(F)C3)cc1)CCN(C(=O)c1ccc(Br)c(Cl)c1)C2` [Compound 119, N-benzyl-7-(4-bromo-3-chloro-benzoyl)-2-[4-(2,2-difluoromorpholin-4-yl)phenyl]-3-oxo-6,8-dihydro-5H-imidazo[1,5-a]pyrazine-1-carboxamide], the pEC50 under setting [1] was 6.30 to 7.30.

For the compound `Cc1nnc(-c2ccccc2CNC(=O)c2c3n(c(=O)n2-c2ccc(OC4CC4)cc2)CC(C)N(C(=O)c2ccc(Br)c(Cl)c2)C3)o1` (single isomer, unassigned) [Compound 1a, (S*)-7-(4-bromo-3-chlorobenzoyl)-2-(4-cyclopropoxyphenyl)-6-methyl-N-(2-(5-methyl-1,3,4-oxadiazol-2-yl)benzyl)-3-oxo-2,3,5,6,7,8-hexahydroimidazo[1,5-a]pyrazine-1-carboxamide], the pEC50 under setting [1] is 6.30 to 7.30.

In the case of `Cc1nc2cc(-n3c(C(=O)NCc4ccccc4-c4ccncn4)c4n(c3=O)CC(C)N(C(=O)c3ccc(Br)c(Cl)c3)C4)ccc2o1` (single isomer, unassigned) [Compound 46b], the pEC50 was over 7.30.

As for `Cc1nnc(-c2cccc(F)c2CNC(=O)c2c3n(c(=O)n2-c2ccc(OC4CC4)cc2)CC(C)N(C(=O)c2ccc(Br)c(C(F)(F)F)c2)C3)o1` (single isomer, unassigned) [Compound 33a], under setting [1], the pEC50 was 6.30 to 7.30.

For `CC1Cn2c(c(C(=O)NCc3ccccc3-c3ncccn3)n(-c3ccc4oncc4c3)c2=O)CN1C(=O)c1ccc(Br)c(C(F)(F)F)c1` (single isomer, unassigned) [Compound 108a], the pEC50 under setting [1] is 5.30 to 6.30.

For the compound `Cc1nnc(-c2ccccc2CNC(=O)c2c3n(c(=O)n2-c2ccc4oc(C)nc4c2)CC(C)N(C(=O)c2ccc(Br)c(C(F)(F)F)c2)C3)o1` (single isomer, unassigned) [Compound 54b], the negative-log EC50 (pEC50) is 6.30 to 7.30.

On to `CC1Cn2c(c(C(=O)NCc3ccccc3-c3ccncn3)n(-c3ccc(OC[C@@H](C)O)cc3)c2=O)CN1C(=O)c1ccc(Br)c(C(F)(F)F)c1` (stereo in doubt) [Compound 55a, (6R*)-7-[4-bromo-3-(trifluoromethyl)benzoyl]-2-{4-[(2R)-2-hydroxypropoxy]phenyl}-6-methyl-3-oxo-N-{[2-(pyrimidin-4-yl)phenyl]methyl}-5H,6H,8H-imidazo[1,5-a]pyrazine-1-carboxamide], for which, under setting [1], the pEC50 was 6.30 to 7.30.

Consider `CC1Cn2c(c(C(=O)NCc3ccccc3-c3ncccn3)n(-c3ccc(OC[C@@H](C)O)cc3)c2=O)CN1C(=O)c1ccc(Br)c(C(F)(F)F)c1` (single isomer, unassigned) [Compound 64a], for which the pEC50 under setting [1] was over 7.30.

On to `C[C@@H]1Cn2c(c(C(=O)NCc3ccccc3-c3ccncn3)n(-c3ccc(OC[C@](C)(O)C(F)(F)F)cc3)c2=O)CN1C(=O)c1ccc(Br)c(C(F)(F)F)c1` (stereo in doubt) [Compound 83a, rac-(6R)-7-[4-bromo-3-(trifluoromethyl)benzoyl]-6-methyl-3-oxo-N-[(2-pyrimidin-4-ylphenyl)methyl]-2-[4-[rac-(2S)-3,3,3-trifluoro-2-hydroxy-2-methyl-propoxy]phenyl]-6,8-dihydro-SH-imidazo[1,5-a]pyrazine-1-carboxamide], for which the pEC50 under setting [1] is 6.30 to 7.30.

Take `CC1Cn2c(c(C(=O)NCc3ccccc3-c3c[nH]cn3)n(-c3ccc(OC4CC4)cc3)c2=O)CN1C(=O)c1ccc(Br)c(Cl)c1` (single isomer, unassigned) [Compound 44b]: the pEC50 was over 7.30.

Turning to `C[C@H](COc1ccc(-n2c(C(=O)NCc3ccccc3-c3ncccn3)c3n(c2=O)C[C@H](C)N(C(=O)c2ccc(Br)c(C(F)(F)F)c2)C3)cc1)N1CCOCC1` (racemic) [Compound 96b, rac-(6S)-7-[4-bromo-3-(trifluoromethyl)benzoyl]-6-methyl-2-[4-(2-morpholinopropoxy)phenyl]-3-oxo-N-[(2-pyrimidin-2-ylphenyl)methyl]-6,8-dihydro-5H-imidazo[1,5-a]pyrazine-1-carboxamide], the pEC50 under setting [1] is over 7.30.

For the compound `CC1Cn2c(c(C(=O)NCc3ccccc3-c3ccccn3)n(-c3ccc(OC[C@@H](C)O)cc3)c2=O)CN1C(=O)c1ccc(Br)c(C(F)(F)F)c1` (single isomer, unassigned) [Compound 60a], the negative-log EC50 (pEC50) under setting [1] was 6.30 to 7.30.

Consider `CC1Cn2c(c(C(=O)NCc3ccccc3-c3ccncn3)n(-c3ccc4oc(N)nc4c3)c2=O)CN1C(=O)c1ccc(Br)c(C(F)(F)F)c1` (single isomer, unassigned) [Compound 93b, (6S*)-2-(2-amino-1,3-benzoxazol-5-yl)-7-[4-bromo-3-(trifluoromethyl)benzoyl]-6-methyl-3-oxo-N-{[2-(pyrimidin-4-yl)phenyl]methyl}-5H,6H,8H-imidazo[1,5-a]pyrazine-1-carboxamide], for which the pEC50 is 6.30 to 7.30.

Regarding `CNc1cc(-c2ccccc2CNC(=O)c2c3n(c(=O)n2-c2ccc(OC4CC4)cc2)C[C@@H](C)N(C(=O)c2ccc(Br)c(Cl)c2)C3)ncn1` (stereo in doubt) [Compound 39a, rac-(6R)-7-(4-bromo-3-chloro-benzoyl)-2-[4-(cyclopropoxy)phenyl]-(methylamino)pyrimidin-4-6-methyl-N-[[246-yl]phenyl]methyl]-3-oxo-6,8-dihydro-5H-imidazo[1,5-a]pyrazine-1-carboxamide], the pEC50 under setting [1] was 6.30 to 7.30.
